The text below walks through data of patent US7875270B2, “Treatment solution and method for preventing posterior capsular opacification by selectively inducing detachment and/or death of lens epithelial cells” (Abbott Medical Optics Inc., priority 2002, dated 2011).

The assay relates to in vivo rabbit eyes. The assay can be described thus: In vivo prevention of PCO after cataract operation in rabbit eyes. The note with it: bumetanide and hyperosmotic NaCl. As to the method:
The experimental group includes sixteen rabbit eyes and the control group includes four rabbit eyes. A sham cataract operation is performed on the control animals. The therapy is introduced to the others.
The pupil of each rabbit eye is preoperatively dilated with topical G Phenylephrine 10% (Alcon Labs., Inc., China) and G Cyclopentolate 1% (Bausch & Lomb Pharm., Inc., USA) three times in one hour. The rabbits are anesthetized with ketamine hydrochloride (5 mg kg-1) and xylazine hydrochloride (2 mg kg-1) and placed on an operating table. A topical anesthetic (Dieaine hydrochloride 1%) is used every five minutes on two occasions. A wire lid speculum is placed to hold the eyelids open.
A 3.2 mm scleral tunnel incision into the eye is formed at the temporal limbus. The anterior chamber is maintained with viscoelastic substances and a 4-5 mm diameter continuous curvilinear capsularhexis (CCC) is made on the anterior surface of the lens to open its bag. The treatment solution is first introduced in the LECs by hydrodissection. This ensures that the treatment fluid immediately reaches under the entire anterior capsule/LECs. This process allows for (i) separation of the lens cortex from the capsule and lens epithelium, making removal of the lens cortex easier at a later stage of the operation and (ii) the LECs to be exposed to the treatment for enough time (more than five minutes in total time).
The crystalline lens is then removed using phacoemulsification (Universal II, Alcon Labs., Inc., China). The remaining cortex is aspirated thoroughly and removed as completely as possible to expose the LECs. The lens capsular bag is then partially filed with viscoelastic material in order to maintain its shape. The viscoelastic material should not cover the LECs when the treatment solution is applied.
The treatment is spread over the inner surface of the anterior capsular bag (where the LECs attach). The anterior capsular is continuously filled by using a syringe with a bent needle. Care is taken not to over flow the bag. After the treatment solution covered the capsule bag, it is left for five minutes and then removed using a syringe.
In a few cases, IOLs are inserted. […] At the same time, the incision is enlarged to 6.0 mm and a posterior ocular lens (IOLs) (poly-methyl methacrylate, PMMA) with a 6.5 mm optic is prepared and placed into the capsular bag.
The wound is closed with or without suture.
At the completion of the surgical procedure, each rabbit eye receives subconjunctival dexamethasone (0.25 ml) and gentamicin (0.25 ml). Postoperatively, atropine sulphate 1% ophthalmic solution and neomycin sulphate-polymyxin sulphate-dexamethasone ophthalmic ointment are administered twice daily for three weeks.
The animals are evaluated for three weeks and ten weeks. […] All rabbits are evaluated by slitlamp and scored for ocular responses at 1 day and at 1, 2 and 3 weeks. (See FIG. 17, Table 1.) Three and ten weeks after surgery, the animals are anesthetized using a 2 ml intramuscular injection of 11:1 mixture of ketamine hydrochloride and xylazine 20 mg/ml and then killed with a 2 ml intravenous injection of sodium pentobarbital.
The eye globes are enucleated (some of them fixed in neutral buffered formalin 10% solution for 24 hours) and are bisected coronally just anterior to the equator. Gross examination is performed to assess. PCO development. Photographs are taken from behind (Miyake-Apple posterior photographic technique) by using a digital camera fitted to an operating microscope (Leica/Wild MZ-8, Vashaw Scientific, Inc.).
The extent and severity of PCO is scored (see FIG. 17, Table 1) according to methods reported in the literature. The lens capsules are then fixed and evaluated under a microscope (Olumpus, Optical Co. Ltd.) and photographed with a digital camera.

As for `CCCCNc1cc(C(=O)O)cc(S(N)(=O)=O)c1Oc1ccccc1` [bumetanide], the “Soemmering's ring” value is reported as “Some degree of Soemmering's ring forms”. Also, the “cell proliferation on the lens anterior capsule” value (three weeks) is reported as “not significant cell proliferation”. Moreover, the “development of CPCO and PPCO” value (three weeks follow up) is “no CPCO and PPCO develop”.
